The record followed here is the NIST ThermoML archive (doi:10.1021/je049959i).

Numbers after ± are expanded uncertainties.

For this data set the following is noted: Liquid, Closed cell (Static) method.

Broadly, the vapor or sublimation pressure is the pressure of vapour in equilibrium with the condensed phase. With `C=CCC` [1-butene], for the setting “323.27 K”, the “vapor or sublimation pressure” value was determined as 596.14 ± 2.1 kPa.
Turning to `CC(C)C` [2-methylpropane], the “vapor or sublimation pressure” value (318.59 K) was 610.84 ± 2.1 kPa.
With `C=C(C)C` [2-methylpropene], the “vapor or sublimation pressure” value (323.07 K) is 607.94 ± 2.1 kPa.
For `C/C=C/C` [(E)-2-butene], under “332.05 K”, the “vapor or sublimation pressure” value was found to be 606.54 ± 2.2 kPa.
`C/C=C\C` [(Z)-2-butene]: the “vapor or sublimation pressure” value (331.92 K) is listed as 561.34 ± 2.1 kPa.
With `CCCC` [butane], where the note is “330.16 K”, the “vapor or sublimation pressure” value was determined as 592.44 ± 2.6 kPa.
In the case of `CCCO` [propan-1-ol], the “vapor or sublimation pressure” value stood at 9.47 ± 0.17 kPa (318.58 K); 12.07 ± 0.18 kPa (323.07 K); 12.27 ± 0.18 kPa (323.26 K); 17.57 ± 0.19 kPa (330.16 K); 19.07 ± 0.18 kPa (331.92 K); 19.17 ± 0.18 kPa (332.05 K).
